The record followed here is ChEMBL document CHEMBL1201862, “PubChem BioAssay data set” (2004).

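All cell lines were grown in 96-well plates and treated with compound for 48 hours. GI50: concentration for 50% inhibition of growth.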 Activity calls are given as the source filed them. Rule as the data show it: active = GI50 up to about 1.1 µM and inactive = higher. A value given as a limit tells only on which side of the number the result lay.

Among the test systems are OVCAR-8; NCI-H226; A498; SK-MEL-2; HL-60; SR; T47D; NCI-H23; OVCAR-3; U-251; KM12; HOP-92; SW-620; SK-MEL-28; RXF 393; HT-29; SK-MEL-5; M14; DU-145; SNB-75.
What all share (assay): DTP human tumour cell line panel, 48 h

Regarding `COc1cc2cc(C(=O)N3C[C@H](CCl)c4c3cc(N)c3ccccc43)[nH]c2c(OC)c1OC`, the GI50 (in general, the concentration giving 50% growth inhibition) with OVCAR-8 was 447 nM (active); in the test on NCI-H226 it was 9510 nM (inactive); with A498, 7.5 nM (active); in the test with SK-MEL-2, 2050 nM (inactive); with HL-60 it was 58.6 nM (active); with SR, 8280 nM (inactive). In addition, the GI50 in the test with T47D is < 5 nM (active); in the test on NCI-H23, 5 nM (active); in the test with OVCAR-3 it was 555 nM (active); in the test with U-251, 279 nM (active); with KM12 it was 1.87 nM (active); in the test on HOP-92, 48.9 nM (active). Besides, the GI50 was 23.3 nM (active) with SW-620; 17.2 nM (active) with SK-MEL-28; 571 nM (active) in the test with RXF 393; 2.96 nM (active) in the test on HT-29; < 5 nM (active) in the test on SK-MEL-5; 502 nM (active) in the test with M14. Besides, the GI50 in the test with DU-145 was 409 nM (active); with SNB-75, 2190 nM (inactive).
